# Source: US20160339057A1, “NOVEL COMPOSITION METHOD OF USING THE SAME FOR THE TREATMENT OF LYME DISEASE” (priority 2014, published 2016)
# Legend:
# [1] = system: spirochetes of B. burgdorferi; assay: Susceptibility of spirochetes, dark-field microscopy; format: cell-based, Borrelia burgdorferi B31; details: most effective concentration (doxycycline: commonly tested concentration, 250 μg/ml), up to 7 days
# Method: (§1) To determine what compound/mixture will inhibit visible growth of B. burgdorferi and B. garinii, a new and accepted micro-dilution method was used according to Sapi et al. Infection and Drug Resistance 2011. Briefly, sterile 1.5 ml test tightly caps screwed tubes containing 1 ml BSK-H medium, supplemented with the test compound of interest were inoculated with 2×10^6 CFU/ml of the homogenous bacterial suspension. The tubes were then incubated at 33° C. and growth was monitored at regular intervals for up to 72 h. The whole experiment was repeated three times for each strain and each concentration. Control cultures were treated with ethanol (i.e. 0.1-0.4 vol/vol) alone. For doxycycline, the final used concentration was 250 μg/m1. Cell growth was assessed by a bacterial Petroff-Hausser counting chamber after the 0 hour, 24 hrs, 48 hrs, 72 hrs and 7 days of incubation using dark field microscopy (direct cell counting), as a standard procedure.
# [2] = system: spirochetes of B. garinii; assay: as above; format: cell-based, Borrelia garinii CIP103362; details: most effective concentration (doxycycline: commonly tested concentration, 250 μg/ml), up to 7 days
# Method: as §1
# [3] = system: rounded forms of B. burgdorferi; assay: Susceptibility of rounded forms, SYTO 9 / propidium iodide fluorescent microscopy; format: cell-based, Borrelia burgdorferi B31; details: most effective concentration, up to 7 days
# Method: (§2) To determine what compound/mixture will have the bactericidal effect a fluorescence method was used according to Sapi et al. Infection and Drug Resistance 2011. Briefly, 2×10^6 CFU/ml of the homogenous bacterial suspension was inoculated into each sterile 1.5 ml test tightly caps screwed tubes containing 1 ml BSK-H medium, supplemented with the test compound/mixture of interest. Control cultures were treated with ethanol (i.e. 0.1-0.4 vol/vol) alone. For doxycycline, as a positive control, the final used concentration was 250 μg/m1. The tubes were then incubated at 33° C. and viability was monitored at regular intervals for up to 72 h. The whole experiment was repeated three times for each strain and each concentration. The susceptibility of spirochetes and round body forms to the test compound was then assessed after 24 h, 48 h, 72 h and 7 days by LIVE/DEAD® BacLight™ Bacterial Viability Assay using fluorescent microscopy, were the ratio of live (green) and dead (red) B. burgdorferi and B. garinii morphological forms were calculated.
# [4] = system: rounded forms of B. garinii; assay: as above; format: cell-based, Borrelia garinii CIP103362; details: most effective concentration, up to 7 days
# Method: as §2
# [5] = system: biofilm of B. burgdorferi; assay: Biofilm on extracellular matrix proteins, crystal violet staining; format: cell-based, Borrelia burgdorferi B31; details: 5 extracellular matrix proteins, most effective concentration
# Method: (§3) Qualitative effect of the test compounds against biofilm-like colonies of B. burgdorferi and B. garinii was evaluated using commonly used and well accepted crystal violet (CV) staining method, according to protocol provided by Sapi et al. Infection and Drug Resistance 2011. Briefly, for curable effect, 1×10^7 CFU/ml from homogeneous cultures of spirochetes were inoculated in extracellular matrix proteins (i.e. matrigel, collagen type I, fibrinogen, hyaluronan, and chondroitin sulfate) coated four-well chambers and incubated for 1 week, respectively. After the 1 week of incubation, biofilm-like colonies were treated with various compounds/mixtures. For preventive effect, 1×10^7 CFU/ml from homogeneous cultures of spirochetes complemented with various compounds/mixtures were inoculated in extracellular matrix proteins (i.e. matrigel, collagen type I, fibrinogen, hyaluronan, and chondroitin sulfate) coated four-well chambers and incubated for 1 week, respectively. Control wells were treated with ethanol (i.e. 0.1-0.4 vol/vol) alone. For doxycycline, as a positive control, the final used concentration was […]. The chambers were then incubated at 33° C. for 72 h. […] The biofilm-like colonies were carefully washed three times with 1×PBS and 1 ml of methanol was added to each well to extract a dye, which was measured at 595 nm wavelength.
# [6] = system: biofilm of B. garinii; assay: as above; format: cell-based, Borrelia garinii CIP103362; details: 5 extracellular matrix proteins, most effective concentration
# Method: as §3
smiles,measurement,setting,value
C[C@H]1c2cccc(O)c2C(=O)C2=C(O)[C@]3(O)C(=O)C(C(N)=O)=C(O)[C@@H](N(C)C)[C@@H]3[C@@H](O)[C@@H]21 [doxycycline],decrease of amount of spiral forms,[1],60-75%
same,decrease of amount of spiral forms,[2],60-75%
same,increase of dead of rounded forms,[3],5-10%
same,rounded forms formation generated,[3],about 2 times
same,increase of dead of rounded forms,[4],5-10%
same,rounded forms formation generated,[4],about 2 times
same,biofilm eradicated (curable effect),[5]; 3 days post-treatment,5-40%
same,biofilm formation prevented (preventive effect),[5]; after 7 days,40-60%
same,biofilm eradicated (curable effect),[6]; 3 days post-treatment,5-40%
same,biofilm formation prevented (preventive effect),[6]; after 7 days,40-60%
